pEC50: −log10 of the molar value. Starred links: 1 amine or outer side, 2 acyl side, 3 side chain; linkers in the order of their positions; H or OH if unused. Non-standard residues stand in square brackets, D forms with d. Residues, ends and D or L forms follow the SMILES beside them. *: point of attachment. Trp(7-Me) = Cc1cccc2c(C[C@H](N)C(=O)O)c[nH]c12; C20 diacid = O=C(O)CCCCCCCCCCCCCCCCCCC(=O)*; d(γGlu) = O=C(O)[C@@H](CCC(=O)[*:2])N[*:1]; C18 diacid = O=C(O)CCCCCCCCCCCCCCCCC(=O)*; γGlu = O=C(O)[C@H](CCC(=O)[*:2])N[*:1]; 2Nal = N[C@@H](Cc1ccc2ccccc2c1)C(=O)O; 3Pal = N[C@@H](Cc1cccnc1)C(=O)O; Nle = CCCC[C@H](N)C(=O)O; AEEA = NCCOCCOCC(=O)O; βAla = NCCC(=O)O; Sar = CNCC(=O)O
Target: T1, human GRP receptors (Homo sapiens, UniProt P30550)
T1 construct: host or cells: U2OS
Experiment: IP1 GRPR activity: HTRF IP1-Gq assay in U2OS cells stably expressing human GRP receptors
Format: cell-based
Conditions: 90 minutes incubation, read-out: hIP1 GRPR EC50
Protocol: U2OS cells stably expressing human GRP receptors (DiscoverX, #93-0229C3) were cultured according to manufacturer's instructions. Cells were cultured to […], then collected using AccuTase (Innovative Cell Technologies, #AT104). Cells were washed and plated on a poly-D-lysine-coated 384-well plate (ThermoFisher, #A3890401) at a density of 2,500 cells/well in […] assay buffer (AssayComplete Cell Plating 5 Reagent, DiscoverX #93-0563R5), then incubated overnight at 37° C. and 5% C02. The following morning, a homogenous time-resolved fluorescence (HTRF) assay was performed in a 384-well plate format using the IP1-Gq assay kit (Cisbio, 62IPAPEB). Test compounds were made as a stock in DMSO, then serially diluted to generate 10-point dose response curves in IP1 stimulation buffer. Five microliters of the prepared compounds were then added to the plate containing cells and assay buffer in duplicate, and the cells were incubated at 37° C. and 5% CO2 for 90 minutes. Following compound incubation, […] of IP1 lysis/detection buffer (prepared according to manufacturer's instructions) was added to each well, and the plates were incubated at room temperature for 1 hour. HTRF signals were measured using a plate reader (ClarioSTAR), calculating the ratio between emissions at 665 nm and 620 nm (HTRF ratio). HTRF ratio for positive (Max, […]; SEQ ID NO. 45) and negative (Min, DMSO) controls were used to normalize HTRF data and generate values for % activity. EC50 and Max activity values were determined using a standard 4-parameter fit using GraphPad Prism.

T1 sequence (P30550 whole entry): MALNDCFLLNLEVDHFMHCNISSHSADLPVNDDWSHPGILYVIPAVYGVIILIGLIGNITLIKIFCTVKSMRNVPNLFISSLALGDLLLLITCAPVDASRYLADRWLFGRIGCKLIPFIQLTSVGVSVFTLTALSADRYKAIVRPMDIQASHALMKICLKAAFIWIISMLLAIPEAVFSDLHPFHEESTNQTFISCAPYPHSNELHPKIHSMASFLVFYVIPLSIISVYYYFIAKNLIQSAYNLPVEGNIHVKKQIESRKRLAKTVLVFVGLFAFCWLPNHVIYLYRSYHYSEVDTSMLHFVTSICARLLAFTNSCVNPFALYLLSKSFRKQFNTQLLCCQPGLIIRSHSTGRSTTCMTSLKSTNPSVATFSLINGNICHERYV

SMILES	pEC50
CC(C)C[C@H](NC(=O)[C@H](Cc1c[nH]cn1)NC(=O)[C@@H](C)NC(=O)[C@@H](NC(=O)[C@H](C)NC(=O)[C@H](Cc1c[nH]c2ccccc12)NC(=O)[C@H](Cc1c[nH]cn1)NC(=O)[C@H](CC(N)=O)NC(=O)CNC(=O)COCCOCCNC(=O)COCCOCCNC(=O)CC[C@@H](NC(=O)CCCCCCCCCCCCCCCCC(=O)O)C(=O)O)C(C)C)C(=O)N[C@@H](CCCNC(=N)N)C(N)=O [Peptide 69, Octadecanedioyl-D-γGlu-OEG-OEG-Gly-Asn-His-Trp-Ala-Val-D-Ala-His-Leu-Arg-NH2] ({C18 diacid-d(γGlu)-AEEA-AEEA}-GNHWAV[dA]HLR-NH2)	< 5.00
CCCC[C@H](NC(=O)[C@H](CC(C)C)NC(=O)[C@H](Cc1c[nH]cn1)NC(=O)[C@@H](C)NC(=O)[C@@H](NC(=O)[C@H](C)NC(=O)[C@H](Cc1ccc2ccccc2c1)NC(=O)[C@H](Cc1c[nH]cn1)NC(=O)[C@H](CC(N)=O)NC(=O)CNC(=O)COCCOCCNC(=O)COCCOCCNC(=O)CC[C@H](NC(=O)CCCCCCCCCCCCCCCCC(=O)O)C(=O)O)C(C)C)C(=O)N(C)CC(N)=O [Peptide 99, Octadecanedioyl-γGlu-OEG-OEG-Gly-Asn-His-2Nal-Ala-Val-D-Ala-His-Leu-Nle-Sar-NH2] ({C18 diacid-γGlu-AEEA-AEEA}-GNH[2Nal]AV[dA]HL[Nle][Sar]-NH2)	< 5.00
CCCC[C@H](NC(=O)[C@H](CC(C)C)NC(=O)[C@H](Cc1c[nH]cn1)NC(=O)[C@@H](C)NC(=O)[C@@H](NC(=O)[C@H](C)NC(=O)[C@H](Cc1c[nH]cn1)NC(=O)[C@H](Cc1c[nH]cn1)NC(=O)[C@H](CC(N)=O)NC(=O)CNC(=O)COCCOCCNC(=O)COCCOCCNC(=O)CC[C@H](NC(=O)CCCCCCCCCCCCCCCCC(=O)O)C(=O)O)C(C)C)C(N)=O [Peptide 107, Octadecanedioyl-γGlu-OEG-OEG-Gly-Asn-His-His-Ala-Val-D-Ala-His-Leu-Nle-NH2] ({C18 diacid-γGlu-AEEA-AEEA}-GNHHAV[dA]HL[Nle]-NH2)	< 5.00
CCCC[C@H](NC(=O)[C@H](CC(C)C)NC(=O)[C@H](Cc1c[nH]cn1)NC(=O)[C@@H](C)NC(=O)[C@@H](NC(=O)[C@H](C)NC(=O)[C@H](CCCNC(=N)N)NC(=O)[C@H](Cc1c[nH]cn1)NC(=O)[C@H](CC(N)=O)NC(=O)CNC(=O)COCCOCCNC(=O)COCCOCCNC(=O)CC[C@H](NC(=O)CCCCCCCCCCCCCCCCC(=O)O)C(=O)O)C(C)C)C(N)=O [Peptide 108, Octadecanedioyl-γGlu-OEG-OEG-Gly-Asn-His-Arg-Ala-Val-D-Ala-His-Leu-Nle-NH2] ({C18 diacid-γGlu-AEEA-AEEA}-GNHRAV[dA]HL[Nle]-NH2)	< 5.00
CCCC[C@H](NC(=O)[C@H](CC(C)C)NC(=O)[C@H](Cc1c[nH]cn1)NC(=O)[C@@H](C)NC(=O)[C@@H](NC(=O)[C@H](C)NC(=O)[C@H](Cc1c[nH]c2ccccc12)NC(=O)[C@H](Cc1c[nH]cn1)NC(=O)[C@H](CC(N)=O)NC(=O)CNC(=O)COCCOCCNC(=O)COCCOCCNC(=O)CC[C@H](NC(=O)CCCCCCCCCCCCCCCCC(=O)O)C(=O)O)C(C)C)C(=O)N[C@@H](CCCNC(=N)N)C(N)=O [Peptide 114, Octadecanedioyl-γGlu-OEG-OEG-Gly-Asn-His-Trp-Ala-Val-D-Ala-His-Leu-Nle-Arg-NH2] ({C18 diacid-γGlu-AEEA-AEEA}-GNHWAV[dA]HL[Nle]R-NH2)	< 5.00
CCCC[C@H](NC(=O)[C@H](CC(C)C)NC(=O)[C@H](Cc1c[nH]cn1)NC(=O)[C@@H](C)NC(=O)[C@@H](NC(=O)[C@@H](C)NC(=O)[C@H](Cc1c[nH]c2ccccc12)NC(=O)[C@H](Cc1c[nH]cn1)NC(=O)[C@H](CC(N)=O)NC(=O)CNC(=O)COCCOCCNC(=O)COCCOCCNC(=O)CC[C@H](NC(=O)CCCCCCCCCCCCCCCCC(=O)O)C(=O)O)C(C)C)C(=O)N(C)CC(N)=O [Peptide 115, Octadecanedioyl-γGlu-OEG-OEG-Gly-Asn-His-Trp-D-Ala-Val-D-Ala-His-Leu-Nle-Sar-NH2] ({C18 diacid-γGlu-AEEA-AEEA}-GNHW[dA]V[dA]HL[Nle][Sar]-NH2)	< 5.00
CCCC[C@H](NC(=O)[C@H](CC(C)C)NC(=O)[C@H](Cc1c[nH]cn1)NC(=O)[C@@H](C)NC(=O)[C@@H](NC(=O)[C@H](C)NC(=O)[C@H](Cc1c[nH]cn1)NC(=O)[C@H](Cc1c[nH]cn1)NC(=O)[C@H](CCCNC(=N)N)NC(=O)CNC(=O)COCCOCCNC(=O)COCCOCCNC(=O)CC[C@H](NC(=O)CCCCCCCCCCCCCCCCC(=O)O)C(=O)O)C(C)C)C(N)=O [Peptide 116, Octadecanedioyl-γGlu-OEG-OEG-Gly-Arg-His-His-Ala-Val-D-Ala-His-Leu-Nle-NH2] ({C18 diacid-γGlu-AEEA-AEEA}-GRHHAV[dA]HL[Nle]-NH2)	< 5.00
CCCC[C@H](NC(=O)[C@H](CC(C)C)NC(=O)[C@H](Cc1c[nH]cn1)NC(=O)[C@@H](C)NC(=O)[C@@H](NC(=O)[C@H](C)NC(=O)[C@H](CCCNC(=N)N)NC(=O)[C@H](Cc1c[nH]cn1)NC(=O)[C@H](CC(N)=O)NC(=O)CNC(=O)COCCOCCNC(=O)COCCOCCNC(=O)CC[C@H](NC(=O)CCCCCCCCCCCCCCCCC(=O)O)C(=O)O)C(C)C)C(=O)N(C)CC(N)=O [Peptide 130, Octadecanedioyl-γGlu-OEG-OEG-Gly-Asn-His-Arg-Ala-Val-D-Ala-His-Leu-Nle-Sar-NH2] ({C18 diacid-γGlu-AEEA-AEEA}-GNHRAV[dA]HL[Nle][Sar]-NH2)	< 5.00
CCCC[C@H](NC(=O)[C@H](CC(C)C)NC(=O)[C@H](Cc1c[nH]cn1)NC(=O)[C@@H](C)NC(=O)[C@@H](NC(=O)[C@@H](C)NC(=O)[C@H](Cc1c[nH]c2ccccc12)NC(=O)[C@H](Cc1c[nH]cn1)NC(=O)[C@H](CC(=O)O)NC(=O)CNC(=O)COCCOCCNC(=O)COCCOCCNC(=O)CC[C@H](NC(=O)CCCCCCCCCCCCCCCCC(=O)O)C(=O)O)C(C)C)C(N)=O [Peptide 139, Octadecanedioyl-γGlu-OEG-OEG-Gly-Asp-His-Trp-D-Ala-Val-D-Ala-His-Leu-Nle-NH2] ({C18 diacid-γGlu-AEEA-AEEA}-GDHW[dA]V[dA]HL[Nle]-NH2)	< 5.00

More lines, now with the values ahead:

pEC50	SMILES
< 5.00	CCCC[C@H](NC(=O)[C@H](CC(C)C)NC(=O)[C@H](Cc1c[nH]cn1)NC(=O)[C@@H](C)NC(=O)[C@@H](NC(=O)[C@H](C)NC(=O)[C@H](Cc1c[nH]cn1)NC(=O)[C@H](Cc1c[nH]cn1)NC(=O)[C@H](CC(N)=O)NC(=O)CNC(=O)COCCOCCNC(=O)COCCOCCNC(=O)CC[C@@H](NC(=O)CCCCCCCCCCCCCCCCC(=O)O)C(=O)O)C(C)C)C(N)=O [Peptide 68, Octadecanedioyl-D-γGlu-OEG-OEG-Gly-Asn-His-His-Ala-Val-D-Ala-His-Leu-Nle-NH2] ({C18 diacid-d(γGlu)-AEEA-AEEA}-GNHHAV[dA]HL[Nle]-NH2)
5.98	CCCC[C@H](NC(=O)[C@H](CC(C)C)NC(=O)[C@H](Cc1c[nH]cn1)NC(=O)[C@@H](C)NC(=O)[C@@H](NC(=O)[C@H](C)NC(=O)[C@H](Cc1c[nH]c2ccccc12)NC(=O)[C@H](Cc1cccnc1)NC(=O)[C@H](CC(N)=O)NC(=O)CNC(=O)COCCOCCNC(=O)COCCOCCNC(=O)CC[C@@H](NC(=O)CCCCCCCCCCCCCCCCC(=O)O)C(=O)O)C(C)C)C(=O)N(C)CC(N)=O [Peptide 72, Octadecanedioyl-D-γGlu-OEG-OEG-Gly-Asn-3Pal-Trp-Ala-Val-D-Ala-His-Leu-Nle-Sar-NH2] ({C18 diacid-d(γGlu)-AEEA-AEEA}-GN[3Pal]WAV[dA]HL[Nle][Sar]-NH2)
6.45	CCCC[C@H](NC(=O)[C@H](CC(C)C)NC(=O)[C@H](Cc1c[nH]cn1)NC(=O)[C@@H](C)NC(=O)[C@@H](NC(=O)[C@H](C)NC(=O)[C@H](Cc1c[nH]c2ccccc12)NC(=O)[C@H](Cc1c[nH]cn1)NC(=O)[C@H](CC(N)=O)NC(=O)[C@H](CCCNC(=N)N)NC(=O)COCCOCCNC(=O)COCCOCCNC(=O)CC[C@H](NC(=O)CCCCCCCCCCCCCCCCC(=O)O)C(=O)O)C(C)C)C(=O)O [Peptide 156, Octadecanedioyl-γGlu-OEG-OEG-Arg-Asn-His-Trp-Ala-Val-D-Ala-His-Leu-Nle] ({C18 diacid-γGlu-AEEA-AEEA}-RNHWAV[dA]HL[Nle]-OH)
8.43	CCCC[C@H](NC(=O)[C@H](CC(C)C)NC(=O)[C@H](Cc1c[nH]cn1)NC(=O)CCNC(=O)[C@@H](NC(=O)[C@H](C)NC(=O)[C@H](Cc1c[nH]c2c(C)cccc12)NC(=O)[C@H](Cc1c[nH]cn1)NC(=O)[C@H](CCCNC(=N)N)NC(=O)CNC(=O)[C@H](CO)NC(=O)COCCOCCNC(=O)COCCOCCNC(=O)CC[C@H](NC(=O)CC[C@H](NC(=O)CCCCCCCCCCCCCCCCCCC(=O)O)C(=O)O)C(=O)O)C(C)C)C(N)=O [Peptide 256, Eicosanedioyl-γGlu-Glu-OEG-OEG-Ser-Gly-Arg-His-7MeTrp-Ala-Val-β-Ala-His-Leu-Nle-NH2] ({C20 diacid-γGlu-γGlu-AEEA-AEEA}-SGRH[Trp(7-Me)]AV[βAla]HL[Nle]-NH2)

Reference: patent US20260176319A1, “PEPTIDE ANALOGS AND METHODS OF USING THE SAME” (Kallyope, Inc., priority 2024, published 2026)
